These results are taken from US20130184202A1, “Peptide Inhibitors and Methods of Use Thereof” (priority 2011, published 2013).

For one test, the system named is RAW cells. As to the kind of experiment: iNOS and IL-1β mRNA expression by RT-PCR after BAL treatment. Particulars: RAW cells treated with SNO-OE-BAL in the presence of the NF-κB inhibitor. In kind it is cell-based. The procedure: RAW cells were treated with BAL prepared from overexpressing mice, either with or without prior transnitrosation with L-SNOC.
RAW cells were treated with OE-BAL or SNO-OE-BAL in the presence and absence of the NF-κB inhibitor caffeic acid phenethyl ester (CAPE).

A further test concerns the target T1, SP-D multimer (Rattus norvegicus, UniProt P35248).
T1 sequence (P35248 20-374): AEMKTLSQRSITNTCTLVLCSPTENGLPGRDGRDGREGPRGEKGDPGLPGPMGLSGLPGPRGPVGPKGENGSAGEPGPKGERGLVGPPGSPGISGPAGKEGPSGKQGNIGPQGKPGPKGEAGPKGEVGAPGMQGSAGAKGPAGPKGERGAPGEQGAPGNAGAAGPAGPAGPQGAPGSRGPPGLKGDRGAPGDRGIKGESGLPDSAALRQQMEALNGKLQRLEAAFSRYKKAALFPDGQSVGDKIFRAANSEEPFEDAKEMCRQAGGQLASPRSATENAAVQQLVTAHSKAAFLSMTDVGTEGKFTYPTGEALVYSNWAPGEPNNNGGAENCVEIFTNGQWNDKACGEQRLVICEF
Nature of the test: SP-D multimer disruption, native gel electrophoresis and Western blot. Format: biochemical. Particulars: for disruption of the SP-D multimer: RrSP-D, 25 mM, 37° C., 20 minutes, native gel. For orientation: Immunoblotting shows a protein as a band on a membrane.

The target of another test is T2, RrSP-D (Rattus norvegicus, UniProt P35248).
T2 sequence (P35248 20-374): T1 sequence (P35248 20-374)
Nature of the test: SP-D trimer/structure disruption, SDS-PAGE and Western blot. In kind it is biochemical. Particulars: for disruption of SP-D structure (specificity): 50 ng RrSP-D, equimolar concentration, non-reducing denaturing SDS-PAGE. The procedure: FIG. 12A provides a hydrophobicity plot of the designed peptide CJ-1 (SEQ ID NO: 1). CJ-1 was directly derived from SP-D sequence within which cysteine residues are located in the hydrophobic pocket. RrSP-D (50 ng) was incubated with or without CJ-1 (10 mM) or DTT (10 mM) at 37° C. for 20 minutes (FIG. 12B). […] RrSP-D (50 ng) was incubated with different doses of CJ-1 (0.01-10 mM) at 37° C. for 20 minutes.
By matching the reduced cysteines within the peptide to those in the target protein one can specifically disrupt structure. Using 50 ng of RrSP-D the effect of an equimolar concentration of CJ-1, targeted peptide; CJ-2, a scrambled version of CJ-1 with no hydrophobic pocket; or L-cysteine was analyzed. Following incubation SP-D structure was assessed by non-reducing denaturing SDS-PAGE.

Another test deals with T3, SNO-SP-D (Rattus norvegicus, UniProt P35248).
T3 sequence (P35248 20-374): T1 sequence (P35248 20-374)
As to the kind of experiment: Biotin-Switch analysis of SNO-SP-D content. Format: biochemical. Particulars: NO-treated RrSP-D incubated with 1 μM or 10 μM. Here is the method:
(§1) RrSP-D was incubated with 100 μM of nitric oxide for 30 minutes to generate SNO-SP-D (FIG. 14A). The resultant protein was incubated with CJ-1 (1 μM or 10 μM). The protein samples were subjected to Biotin-Switch analysis to determine SNO-SP-D content. Lane 1 untreated RrSP-D; Lane 2 NO-treated RrSP-D; Lane 3 NO-treated RrSP-D+1 μM CJ-1; Lane 4 NO-treated RrSP-D+10 μM CJ-1. […] The chemoattractive activity to RAW 264.7 cells was assayed using a Boydin Chamber.

The test system of test [1] is RAW 264.7 cells. Nature of the test: Chemotactic activity, Boydin Chamber. Format: cell-based. Particulars: SNO-SP-D samples treated with 1 μM or 10 μM. Here is the method: as §1
Test [2] deals with RAW 264.7 cells. Nature of the test: Real-time qPCR of pro-inflammatory mediator mRNA (IL-1β, iNOS, ptgs2, CCL2). In kind it is cell-based. The settings on record: 10 μM, 3 hours, without LPS. Here is the method:
Raw 264.7 cells were incubated with or without CJ-1 (10 μM) or SNO-CJ-1 (10 μM) for 3 hours (FIG. 17A) or incubated with or without CJ-1 (10 μM) or SNO-CJ-1 (10 μM) for 20 minutes and treated with LPS (1 ng/mL) for an additional 3 hours (FIG. 17B). The cells were lysed and total RNA was isolated and subjected to real-time qPCR for mRNA expression of IL-1β, iNOS, ptgs2 and CCL2. SNO-CJ-1 inhibits mRNA expression of pro-inflammatory mediators.
In general terms: In qPCR the cycle at which signal appears reflects the starting amount.

In the next test the test system is HIV X4 strain NL4-3. Nature of the test: HIV reverse transcriptase (RT) assay in supernatants of infected Jurkat T cells. In kind it is cell-based. The settings on record: NL4-3 preincubated 1 hour at 37° C.; Jurkat T cells infected 16 hours; supernatants day 6 postinfection. The procedure: The HIV X4 strain NL4-3 was preincubated without (control) or with peptide CJ-2 which was a peptide with two cysteines in the hydrophilic domain, peptide CJ-3 which was derived from gp120, or peptide CJ-4 which was derived from gp41 for 1 hour at 37° C. at the concentrations indicated. The Jurkat T cells (0.5×10^6 cell/ml) were infected by NL4-3 (30 ng/ml) for 16 hours and washed. The supernatants at day 6 postinfection was collected and subjected to HIV reverse transcriptase (RT) assay. The data are shown represent the mean±SD of duplicate cultures (FIG. 15D).

The target of another test is HIV gp120 LAV (Human immunodeficiency virus type 1 group M subtype B, UniProt P03377). The settings on record: preincubated, denatured, SDS PAGE, Coomassie blue. The procedure:
Peptides were designed to disrupt HIV gp120 formation. […] HIV gp120 LAV preincubated without (lane 1) or with DTT (lane 2), L-cysteine (lane 3), CJ-3 (lane 4) CJ-4 (lane 5) or CJ-3 and CJ-4 (lane 6) was denatured and subjected to SDS PAGE gel electrophoresis. The resulted proteins were visualized by Coomassie blue staining (FIG. 15C).

As to `O=C(/C=C/c1ccc(O)c(O)c1)OCCc1ccccc1` [CAPE, caffeic acid phenethyl ester], the “effect on SNO-OE-BAL mediated increase in iNOS expression” value with RAW cells is “completely abrogated the increase in iNOS expression”.

For `N[C@@H](CSN=O)C(=O)O` [L-SNOC, L-S-nitroso-cysteine], on SP-D multimer (BAL from SP-D overexpressing mice or 0.2 μM recombinant SP-D treated with L-SNOC, native electrophoresis, Western blot), the “disruption of native SP-D multimers” value is “disruption of the native multimers to dodecamers and trimers”. Moreover, the “disruption of the SP-D multimer” value at SP-D multimer is reported as “capable of disrupting the SP-D multimer at high concentration”.

Consider `N[C@@H](CS)C(=O)O` [L-cysteine, reference compound], for which, at SP-D multimer, the “disruption of the SP-D multimer” value is “capable of disrupting the SP-D multimer at high concentration”. On RrSP-D, the “disruption of SP-D structure (specificity)” value is given as “Only CJ-1 is capable of disrupting SP-D structure”.

Regarding AEMKSLSQRSVPNTCTLVMCSPTE [CJ-1], the “SNO-SP-D content (S-nitrosothiol)” value with SNO-SP-D is listed as “depleted S-nitrosothiol from SNO-SP-D”. Moreover, in the test on RAW 264.7 cells [1], the “SNO-SP-D induced RAW 264.7 cell migration” value was “inhibits the ability of SNO-SP-D to induce RAW 264.7 cell migration”. Also, the “disruption of SP-D structure (specificity)” value with RrSP-D is listed as “capable of disrupting SP-D structure”. In addition, the “disruption of SP-D, dose dependence” value with RrSP-D (RrSP-D 50 ng, 0.01-10 mM, 37° C., 20 minutes) is “disrupts SP-D in a dose-dependent manner”. The “disruption of SP-D trimers” value in the test with RrSP-D (RrSP-D 50 ng, 10 mM, 37° C., 20 minutes, SDS PAGE, Western blot) is on record as “disrupts SP-D trimers”. For the same compound, in the test with RAW 264.7 cells [2], the “induction of transcription of inflammatory genes” value was “capable of inducing transcription of inflammatory genes within macrophages”.

In the case of LVWEDLRNLCLFSYRLLR [CJ-4], the “inhibition of HIV (RT activity in supernatants)” value in the test on HIV X4 strain NL4-3 is listed as “inhibited HIV”. Moreover, the “disruption of the structure of HIV gp120 LAV” value in the test with HIV gp120 LAV is listed as “disrupted the structure of HIV gp120 LAV”.

VPVWKDAETTLFCASDAK [CJ-3]: the “inhibition of HIV (RT activity in supernatants)” value in the test on HIV X4 strain NL4-3 is “inhibited HIV”. Moreover, the “disruption of the structure of HIV gp120 LAV” value with HIV gp120 LAV was “disrupted the structure of HIV gp120 LAV”.
